For the assay, the target named is T1, HPK1 (Homo sapiens, UniProt Q92918).
T1 construct: A HiBiT tag was introduced by CRISPR on the N terminus of HPK1 in Jurkat cells; host or cells: Jurkat cells (ATCC TIB-152), monoclonal line with CRISPR knock-in of HiBiT at the endogenous HPK1 locus
In words: HPK1 Cellular HiBit Degradation Assay. It is filed as cell-based. Particulars: HiBiT HPK1 Jurkat cells, 24 hrs; for DC50: concentration at which 50% of HPK1 was remaining, read-out: DC50 Category; for Dmax: Jurkat, maximum degradation vs DMSO vehicle control, read-out: Dmax Category. In a few lines: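 Jurkat cells with CRISPR N-terminal HiBiT-tagged endogenous HPK1 treated 24 h at 37 °C with 11-point, 3.16-fold dilutions (10 uM to 0.1 nM final). HiBiT lytic luminescence gives % HPK1 remaining versus DMSO, with parental cells as background. Four-parameter fit yields DC50; Dmax = 100 minus lowest % remaining.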
For orientation: With HiBiT, luminescence reflects the tagged protein that the partner subunit can reach.

Each structure is given as a SMILES string.

T1 sequence (Q92918 whole entry): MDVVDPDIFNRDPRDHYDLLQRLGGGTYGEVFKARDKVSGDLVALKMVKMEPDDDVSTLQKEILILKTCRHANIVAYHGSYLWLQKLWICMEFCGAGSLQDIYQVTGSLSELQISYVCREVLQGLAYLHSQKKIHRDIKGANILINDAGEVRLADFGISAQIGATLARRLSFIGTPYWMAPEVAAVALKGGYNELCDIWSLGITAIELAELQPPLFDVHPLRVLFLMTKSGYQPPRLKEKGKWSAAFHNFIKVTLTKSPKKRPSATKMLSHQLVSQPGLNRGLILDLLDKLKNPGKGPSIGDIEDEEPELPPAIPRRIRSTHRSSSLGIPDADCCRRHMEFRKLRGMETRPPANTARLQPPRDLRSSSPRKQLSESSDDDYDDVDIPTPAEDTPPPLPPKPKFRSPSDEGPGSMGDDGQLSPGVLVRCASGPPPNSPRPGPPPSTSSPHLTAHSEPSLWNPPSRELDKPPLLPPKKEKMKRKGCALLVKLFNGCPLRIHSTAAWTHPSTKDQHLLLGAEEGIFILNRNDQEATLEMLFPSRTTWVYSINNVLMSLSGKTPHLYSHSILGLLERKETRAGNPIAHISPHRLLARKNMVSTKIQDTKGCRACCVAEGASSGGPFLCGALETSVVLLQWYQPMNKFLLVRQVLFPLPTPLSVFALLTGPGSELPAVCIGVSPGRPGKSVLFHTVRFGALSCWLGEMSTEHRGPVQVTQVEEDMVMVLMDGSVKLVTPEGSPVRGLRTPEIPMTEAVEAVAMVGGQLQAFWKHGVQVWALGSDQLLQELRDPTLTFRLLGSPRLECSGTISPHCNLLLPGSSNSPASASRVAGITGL

`CC(C)n1cnc2cc(-c3ccc4c(c3)N([C@H]3C[C@@H](N5CCCCC5)C3)C(=O)C43CCN(C(=O)C4CCN(C(=O)C5CCN(c6ccc(N7CCC(=O)NC7=O)cn6)CC5)CC4)CC3)nc(NC3CC3)c21` [Example 79, 1-(6-{4-[4-({6-[4-(cyclopropylamino)-3-(propan-2-yl)-3H-imidazo[4,5-c]pyridin-6-yl]-2-oxo-1-[(1S,3S)-3-(piperidin-1-yl)cyclobutyl]-1,2-dihydrospiro[indole-3,4′-piperidin]-1′-yl}carbonyl)piperidine-1-carbonyl]piperidin-1-yl}pyridin-3-yl)-1,3-diazinane-2,4-dione]: the DC50 (as a rule, the concentration giving 50% degradation) was below 100 nM and the Dmax (as a rule, the greatest extent of degradation seen) lay within 50 to 70%.
On to `CC(C)n1cnc2cc(-c3ccc4c(c3)N([C@H]3C[C@@H](N5CCCCC5)C3)C(=O)C43CCN(C(=O)C4CCN(C(=O)C5CCN(c6ccc(N7CCC(=O)NC7=O)cn6)CC5)CC4)CC3)nc(Nc3ccccc3F)c21` [Example 80, 1-[6-(4-{4-[(6-{4-[(2-fluorophenyl)amino]-3-(propan-2-yl)-3H-imidazo[4,5-c]pyridin-6-yl}-2-oxo-1-[(1S,3S)-3-(piperidin-1-yl)cyclobutyl]-1,2-dihydrospiro[indole-3,4′-piperidin]-1′-yl)carbonyl]piperidine-1-carbonyl}piperidin-1-yl)pyridin-3-yl]-1,3-diazinane-2,4-dione], for which the DC50 was below 100 nM and the Dmax was 70 to 85%.
For `CC(C)n1cnc2cc(-c3ccc4c(c3)N([C@H]3C[C@@H](N5CCCCC5)C3)C(=O)C43CCN(C(=O)C4CCN(C(=O)C5CCN(c6ccc(N7CCC(=O)NC7=O)cn6)CC5)CC4)CC3)nc(Nc3ccncc3F)c21` [Example 81, 1-[6-(4-{4-[(6-{4-[(3-Fluoropyridin-4-yl)amino]-3-(propan-2-yl)-3H-imidazo[4,5-c]pyridin-6-yl}-2-oxo-1-[(1S,3S)-3-(piperidin-1-yl)cyclobutyl]-1,2-dihydrospiro[indole-3,4′-piperidin]-1′-yl)carbonyl]piperidine-1-carbonyl}piperidin-1-yl)pyridin-3-yl]-1,3-diazinane-2,4-dione], the DC50 was below 100 nM and the Dmax was in the range of 50 to 70%.
As for `CC(C)n1cnc2cc(-c3ccc4c(c3)N([C@H]3C[C@@H](N5CCCCC5)C3)C(=O)C43CCN(C(=O)C4CCN(C(=O)C5CCN(c6ccc(C7CCC(=O)NC7=O)nc6)CC5)CC4)CC3)nc(NC3CC3)c21` (stereo partly drawn) [Example 84, 3-(5-{4-[4-({6-[4-(cyclopropylamino)-3-(propan-2-yl)-3H-imidazo[4,5-c]pyridin-6-yl]-2-Oxo-1-[(1S,3S)-3-(piperidin-1-yl)cyclobutyl]-1,2-dihydrospiro[indole-3,4′-piperidin]-1′-yl}carbonyl)piperidine-1-carbonyl]piperidin-1-yl}pyridin-2-yl)piperidine-2,6-dione], the DC50 lay within 100 to 500 nM and the Dmax lay within 50 to 70%.
The matching figures for `CC(C)n1cnc2cc(-c3ccc4c(c3)N([C@H]3C[C@@H](N5CCCCC5)C3)C(=O)C43CCN(C(=O)C4CCN(C(=O)C5CCN(c6ccc(C7CCC(=O)NC7=O)nc6)CC5)CC4)CC3)nc(Nc3ccccc3F)c21` (stereo partly drawn) [Example 85, 3-[5-(4-{4-[(6-{4-[(2-fluorophenyl)amino]-3-(propan-2-yl)-3H-imidazo[4,5-c]pyridin-6-yl}-2-oxo-1-[(1S,3S)-3-(piperidin-1-yl)cyclobutyl]-1,2-dihydrospiro[indole-3,4′-piperidin]-1′-yl)carbonyl]piperidine-1-carbonyl}piperidin-1-yl)pyridin-2-yl]piperidine-2,6-dione]: below 100 nM and 70 to 85%.
The matching figures for `CC(C)n1cnc2cc(-c3ccc4c(c3)N([C@H]3C[C@@H](N5CCCCC5)C3)C(=O)C43CCN(C(=O)C4CCN(C(=O)C5CCN(c6ncc(C7CCC(=O)NC7=O)cn6)CC5)CC4)CC3)nc(Nc3ccccc3F)c21` (stereo partly drawn) [Example 90, 3-(2-(4-(4-(6-(4-((2-fluorophenyl)amino)-3-isopropyl-3H-imidazo[4,5-c]pyridin-6-yl)-2-oxo-1-((1S,3S)-3-(piperidin-1-yl)cyclobutyl)spiro[indoline-3,4′-piperidine]-1′-carbonyl)piperidine-1-carbonyl)piperidin-1-yl)pyrimidin-5-yl)piperidine-2,6-dione]: below 100 nM and 70 to 85%.
In the case of `CC(C)n1cnc2cc(-c3ccc4c(c3)N([C@H]3C[C@@H](N5CCCCC5)C3)C(=O)C43CCN(C(=O)C4CCN(C(=O)CC5CCN(c6ccc(C7CCC(=O)NC7=O)cn6)CC5)CC4)CC3)nc(Nc3ccccc3F)c21` (stereo partly drawn) [Example 92, 3-(6-(4-(2-(4-(6-(4-((2-fluorophenyl)amino)-3-isopropyl-3H-imidazo[4,5-c]pyridin-6-yl)-2-oxo-1-((1S,3S)-3-(piperidin-1-yl)cyclobutyl)spiro[indoline-3,4′-piperidine]-1′-carbonyl)piperidin-1-yl)-2-oxoethyl)piperidin-1-yl)pyridin-3-yl)piperidine-2,6-dione], the DC50 is below 100 nM and the Dmax lay in the range of 70 to 85%.
The matching figures for `CC(C)n1cnc2cc(-c3ccc4c(c3)N([C@H]3C[C@@H](N5CCCCC5)C3)C(=O)C43CCN(C(=O)C4(C)CCN(C(=O)[C@H]5CC[C@H](Oc6ccc(N7CCC(=O)NC7=O)cn6)CC5)CC4)CC3)nc(Nc3ccccc3F)c21` [Example 108, 1-(6-{[(1R,4R)-4-{4-[(6-{4-[(2-fluorophenyl)amino]-3-(propan-2-yl)-3H-imidazo[4,5-c]pyridin-6-yl}-2-oxo-1-[(1S,3S)-3-(piperidin-1-yl)cyclobutyl]-1,2-dihydrospiro[indole-3,4′-piperidin]-1′-yl)carbonyl]-4-methylpiperidine-1-carbonyl}cyclohexyl]oxy}pyridin-3-yl)-1,3-diazinane-2,4-dione]: below 100 nM and 70 to 85%.
For `CC(C)n1cnc2cc(-c3ccc4c(c3)N([C@H]3C[C@@H](N5CCCCC5)C3)C(=O)C43CCN(C(=O)C4(C)CCN(C(=O)[C@H]5CC[C@H](Oc6ccc(N7CCC(=O)NC7=O)cn6)CC5)CC4)CC3)nc(Nc3ccncc3F)c21` [Example 109, 1-(6-{[(1R,4R)-4-{4-[(6-{4-[(3-Fluoropyridin-4-yl)amino]-3-(propan-2-yl)-3H-imidazo[4,5-c]pyridin-6-yl}-2-oxo-1-[(1S,3S)-3-(piperidin-1-yl)cyclobutyl]-1,2-dihydrospiro[indole-3,4′-piperidin]-1′-yl)carbonyl]-4-methylpiperidine-1-carbonyl}cyclohexyl]oxy}pyridin-3-yl)-1,3-diazinane-2,4-dione] the same measures were 100 to 500 nM and 50 to 70%.
For `CC(C)n1cnc2cc(-c3ccc4c(c3)N([C@H]3C[C@@H](N5CCCCC5)C3)C(=O)C43CCN(C(=O)C4(C)CCN(C(=O)C5CCN(c6ccc(N7CCC(=O)NC7=O)cn6)CC5)CC4)CC3)nc(NC3CC3)c21` [Example 115, 1-(6-{4-[4-({6-[4-(cyclopropylamino)-3-(propan-2-yl)-3H-imidazo[4,5-c]pyridin-6-yl]-2-oxo-1-[(1S,3S)-3-(piperidin-1-yl)cyclobutyl]-1,2-dihydrospiro[indole-3,4′-piperidin]-1′-yl}carbonyl)-4-methylpiperidine-1-carbonyl]piperidin-1-yl}pyridin-3-yl)-1,3-diazinane-2,4-dione] the same measures were below 100 nM and 70 to 85%.
As to `CC(C)n1cnc2cc(-c3ccc4c(c3)N([C@H]3C[C@@H](N5CCCCC5)C3)C(=O)C43CCN(C(=O)C4(C)CCN(C(=O)C5CCN(c6ccc(N7CCC(=O)NC7=O)cn6)CC5)CC4)CC3)nc(Nc3ccccc3F)c21` [Example 116, 1-[6-(4-{4-[(6-{4-[(2-fluorophenyl)amino]-3-(propan-2-yl)-3H-imidazo[4,5-c]pyridin-6-yl}-2-oxo-1-[(1S,3S)-3-(piperidin-1-yl)cyclobutyl]-1,2-dihydrospiro[indole-3,4′-piperidin]-1′-yl)carbonyl]-4-methylpiperidine-1-carbonyl}piperidin-1-yl)pyridin-3-yl]-1,3-diazinane-2,4-dione], the DC50 was below 100 nM and the Dmax is above 85%.
For `CC(C)n1cnc2cc(-c3ccc4c(c3)N([C@H]3C[C@@H](N5CCCCC5)C3)C(=O)C43CCN(C(=O)C4(C)CCN(C(=O)C5CCN(c6ccc(N7CCC(=O)NC7=O)cn6)CC5)CC4)CC3)nc(Nc3ccncc3F)c21` [Example 117, 1-[6-(4-{4-[(6-{4-[(3-fluoropyridin-4-yl)amino]-3-(propan-2-yl)-3H-imidazo[4,5-c]pyridin-6-yl}-2-oxo-1-[(1S,3S)-3-(piperidin-1-yl)cyclobutyl]-1,2-dihydrospiro[indole-3,4′-piperidin]-1′-yl)carbonyl]-4-methylpiperidine-1-carbonyl}piperidin-1-yl)pyridin-3-yl]-1,3-diazinane-2,4-dione] the same measures were below 100 nM and above 85%.
For `CC(C)n1cnc2cc(-c3ccc4c(c3)N([C@H]3C[C@@H](N5CCCCC5)C3)C(=O)C43CCN(C(=O)C4(C)CCN(C(=O)C5CCN(c6ccc7c(c6)C(=O)N(C6CCC(=O)NC6=O)C7=O)CC5)CC4)CC3)nc(NC3CC3)c21` (some centres unmarked) [Example 121, 5-{4-[4-({6-[4-(cyclopropylamino)-3-(propan-2-yl)-3H-imidazo[4,5-c]pyridin-6-yl]-2-oxo-1-[(1s,3s)-3-(piperidin-1-yl)cyclobutyl]-1,2-dihydrospiro[indole-3,4′-piperidin]-1′-yl}carbonyl)-4-methylpiperidine-1-carbonyl]piperidin-1-yl}-2-(2,6-dioxopiperidin-3-yl)-2,3-dihydro-1H-isoindole-1,3-dione] the same measures were 500 to 1000 nM and 50 to 70%.

These data come from patent US12091426B2, “Bifunctional degraders of hematopoietic progenitor kinase and therapeutic uses thereof” (Nurix Therapeutics, Inc., priority 2021, dated 2024).
